Measurements published in patent US11739100B2, “2,3-dihydro-1h-imidazo{1,2-a}pyrimidin-5-one and this 1,2,3,4-tetrahydropyrimido{1,2-a}pyrimidin-6-one derivatives comprising a substituted morpholine, preparation thereof and pharmaceutical use thereof” (SANOFI, priority 2012, dated 2023).

Target: T1, recombinant Vps34 (Homo sapiens, UniProt Q8NEB9)
T1 construct: purchased Invitrogen PV5126
Assay: Phosphorylation of phosphatidylinositol (PI) by Vps34 in vitro, ADP detected by TR-FRET (HTRF Transcreener ADP)
Assay type: biochemical
Conditions: 10 μM ATP, 55 μg/ml PI, approximately 3 nM Vps34, 1 hour at ambient temperature; absolute IC50, mean of two independent experiments; read-out: IC50 activity range

T1 sequence (Q8NEB9 whole entry): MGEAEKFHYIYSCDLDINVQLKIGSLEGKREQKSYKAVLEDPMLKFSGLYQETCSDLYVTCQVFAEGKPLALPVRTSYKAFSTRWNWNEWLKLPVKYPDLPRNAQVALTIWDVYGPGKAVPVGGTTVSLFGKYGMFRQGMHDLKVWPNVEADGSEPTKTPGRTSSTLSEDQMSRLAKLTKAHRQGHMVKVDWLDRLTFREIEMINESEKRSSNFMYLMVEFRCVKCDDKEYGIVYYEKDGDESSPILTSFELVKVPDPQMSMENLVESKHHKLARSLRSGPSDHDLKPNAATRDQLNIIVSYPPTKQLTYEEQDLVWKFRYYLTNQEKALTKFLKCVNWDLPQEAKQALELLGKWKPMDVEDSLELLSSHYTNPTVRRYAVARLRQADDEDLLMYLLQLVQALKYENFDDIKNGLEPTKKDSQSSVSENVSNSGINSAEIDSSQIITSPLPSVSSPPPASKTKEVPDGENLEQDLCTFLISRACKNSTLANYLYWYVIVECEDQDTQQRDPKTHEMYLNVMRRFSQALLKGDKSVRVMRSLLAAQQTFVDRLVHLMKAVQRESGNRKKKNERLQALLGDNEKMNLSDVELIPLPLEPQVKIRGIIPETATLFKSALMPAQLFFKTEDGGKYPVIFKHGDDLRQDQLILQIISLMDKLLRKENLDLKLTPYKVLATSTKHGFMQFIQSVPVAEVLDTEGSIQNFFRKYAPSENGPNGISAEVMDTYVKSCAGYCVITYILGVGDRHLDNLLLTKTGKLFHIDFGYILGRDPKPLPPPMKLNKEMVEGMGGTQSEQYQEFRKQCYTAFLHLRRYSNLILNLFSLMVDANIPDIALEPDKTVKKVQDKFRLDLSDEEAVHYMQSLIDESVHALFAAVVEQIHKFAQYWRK

Compound | IC50
C[C@@H]1COCCN1c1cc(=O)n2c(n1)N(CCC(C)(C)F)[C@H](C(F)(F)F)CC2 [Example 267, (S)-9-(3-Fluoro-3-methylbutyl)-2-((R)-3-methylmorpholin-4-yl)-8-trifluoromethyl-6,7,8,9-tetrahydro-pyrimido[1,2-a]-pyrimidin-4-one] | < 10 nM
C[C@@H]1COCCN1c1cc(=O)n2c(n1)N(CCO)[C@H](C(F)(F)F)CC2 [Example 315, (S)-9-(2-Hydroxy-ethyl)-2-((R)-3-methyl-morpholin-4-yl)-8-trifluoromethyl-6,7,8,9-tetrahydro-pyrimido[1,2-a]-pyrimidin-4-one] | < 10 nM
C[C@@H]1COCCN1c1nc2n(c(=O)c1F)CCC(C)(C)N2Cc1ccnn1C(F)F [Example 74, 9-(2-Difluoromethyl-2H-pyrazol-3-yl-methyl)-3-fluoro-8,8-dimethyl-2-((R)-3-methylmorpholin-4-yl)-6,7,8,9-tetrahydro-pyrimido[1,2-a]-pyrimidin-4-one] | 10 to 100 nM
C[C@@H]1COCCN1c1nc2n(c(=O)c1F)CC[C@@H](C(F)(F)F)N2c1ccncc1 [Example 55, (S)-3-Fluoro-2-((R)-3-methylmorpholin-4-yl)-9-pyridin-4-yl-8-trifluoromethyl-6,7,8,9-tetrahydro-pyrimido[1,2-a]-pyrimidin-4-one] | < 10 nM
C[C@@H]1COCCN1c1cc(=O)n2c(n1)N(Cc1ccncc1)[C@H](C(F)(F)F)CC2 [Example 216, (S)-2-((R)-3-Methyl-morpholin-4-yl)-9-pyridin-4-ylmethyl-8-trifluoromethyl-6,7,8,9-tetrahydro-pyrimido[1,2-a]-pyrimidin-4-one] | 10 to 100 nM
C[C@@H]1COCCN1c1cc(=O)n2c(n1)N(CC(=O)c1ncccc1F)[C@H](C(F)(F)F)CC2 [Example 60, (S)-9-[2-(3-Fluoro-pyridin-2-yl)-2-oxo-ethyl]-2-((R)-3-methyl-morpholin-4-yl)-8-trifluoromethyl-6,7,8,9-tetrahydro-pyrimido[1,2-a]-pyrimidin-4-one] | < 10 nM
Cc1nc(CN2c3nc(N4CCOC[C@H]4C)c(F)c(=O)n3C[C@@]2(C)C(F)(F)F)no1 [Example 30, (S)-6-Fluoro-2-methyl-7-((R)-3-methyl-morpholin-4-yl)-1-(5-methyl-[1,2,4]oxadiazol-3-yl-methyl)-2-trifluoromethyl-2,3-dihydro-1H-imidazo[1,2-a]-pyrimidin-5-one] | < 10 nM
C[C@@H]1COCCN1c1nc2n(c(=O)c1F)CC[C@@H](C(F)(F)F)N2Cc1ccc(F)cn1 [Example 56, (S)-3-Fluoro-9-(5-fluoropyridin-2-yl-methyl)-2-((R)-3-methylmorpholin-4-yl)-8-trifluoromethyl-6,7,8,9-tetrahydro-pyrimido[1,2-a]-pyrimidin-4-one] | < 10 nM
CCC(C)N1c2nc(N3CCOC[C@H]3C)cc(=O)n2CC[C@H]1C(F)(F)F (single isomer, unassigned) [Example 284] | < 10 nM
C[C@@H]1COCCN1c1cc(=O)n2c(n1)N(Cc1ccnc(Cl)c1)[C@](C)(C(F)(F)F)C2 [Example 181, (S)-1-(2-Chloro-pyridin-4-ylmethyl)-2-methyl-7-((R)-3-methylmorpholin-4-yl)-2-trifluoromethyl-2,3-dihydro-1H-imidazo[1,2-a]-pyrimidin-5-one] | < 10 nM
